This passage reports IC50 results from patent publication US20240415819A1, “MACROCYCLIC COMPOUNDS AS PROTEASOME SUBUNIT BETA TYPE-5 INHIBITORS” (Lead Discovery Center GmbH, priority 2021, published 2024).

In test [1] the target is T1, β5 subunit of the human immunoproteasome (IPS) (Homo sapiens, UniProt P28062).
T1 construct: purchased Boston Biochem E-370
In words: β5 inhibition assay, human immunoproteasome (Suc-LLVY-AMC). In kind it is biochemical. To be noted: IC50 class, Suc-LLVY-AMC substrate. In short, it runs like this: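 Human immunoproteasome (1 nM final) was preincubated 10 min at RT with compound in 100 mM HEPES pH 7.5, 50 mM NaCl, 0.02% SDS, 1 mM DTT. Suc-LLVY-AMC (22.6 μM final) was then added for 4 h at RT in the dark. After stopping with 1 μM bortezomib, AMC fluorescence was read (ex 355/em 460 nm).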

A further test has as its system HT-29 cells. In words: CellTiter-Glo luminescent cell viability assay with HT-29 cells (72h incubation). In kind it is cell-based, human. The settings on record: Homo sapiens, HT-29, HT29 cells, read-out: CTG HT29. In short, it runs like this:
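400 cells per well in DMEM/10% FCS were dosed after 24 h and kept 72 h at 37 °C, 5% CO2. ATP-based luminescence (CellTiter-Glo) normalized to DMSO and 10 μM staurosporine controls; IC50 by dose-response fit.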
In general terms: Cellular ATP, detected with luciferase, serves as a proxy for viable cell number.

In the case of `Cc1ccc2cc1CNC(=O)C(c1cnn(C)c1)NC(=O)CCCCC(=O)N1CCCC(CCO2)C1` (stereo not shown) [Compound 356, 5^4-methyl-9-(1-methyl-1H-pyrazol-4-yl)-4-oxa-7,10-diaza-1(3,1)-piperidina-5(1,3)-benzenacyclohexadecaphane-8,11,16-trione], the IC50 was less than 100 nM in test [1] and 500 to 1000 nM with HT-29 cells. As for `Cc1ccc2cc1CNC(=O)C(CCc1ccc(S(=O)(=O)O)cc1)NC(=O)[C@@H](NC(=O)OCc1ccccc1)CC(=O)N1CCCC(CCO2)C1` (stereo partly drawn) [Compound 509, 4-(2-((12S)-12-(((benzyloxy)carbonyl)amino)-5^4-methyl-8,11,14-trioxo-4-oxa-7,10-diaza-1(3,1)-piperidina-5(1,3)-benzenacyclotetradecaphane-9-yl)ethyl)benzenesulfonic acid], the values for the IC50 (in test [1]; in the test with HT-29 cells) were less than 100 nM and 100 to 500 nM, respectively. Consider `CC(=O)N[C@H]1CC(=O)N2CCCC(CCOc3ccc(C)c(c3)CNC(=O)C(Cn3c(=O)oc4ccccc43)NC1=O)C2` (stereo partly drawn) [Compound 555, N-((12S)-5^4-methyl-8,11,14-trioxo-9-((2-oxobenzo[d]oxazol-3(2H)-yl)methyl)-4-oxa-7,10-diaza-1(3,1)-piperidina-5(1,3)-benzenacyclotetradecaphane-12-yl)acetamide], for which the IC50 (in test [1]; with HT-29 cells) was less than 100 nM in each case. Consider `Cc1ccc2cc1CNC(=O)C(CCc1ccncc1)NC(=O)[C@@H](NC(=O)Cc1ccc(N)cc1F)CC(=O)N1CCCC(CCO2)C1` (stereo partly drawn) [Compound 344, 2-(4-amino-2-fluorophenyl)-N-((12S)-5^4-methyl-8,11,14-trioxo-9-(2-(pyridin-4-yl)ethyl)-4-oxa-7,10-diaza-1(3,1)-piperidina-5(1,3)-benzenacyclotetradecaphane-12-yl)acetamide], for which the IC50 (in test [1]; in the test with HT-29 cells) was less than 100 nM throughout.

As for `CO[C@@H](C(=O)N[C@H]1CC(=O)N2CCCC(CCOc3ccc(C)c(c3)CNC(=O)C(c3cnn(C)c3)NC1=O)C2)c1ccccc1` (stereo partly drawn) [Compound 361, (2R)-2-methoxy-N-((12S)-5^4-methyl-9-(1-methyl-1H-pyrazol-4-yl)-8,11,14-trioxo-4-oxa-7,10-diaza-1(3,1)-piperidina-5(1,3)-benzenacyclotetradecaphane-12-yl)-2-phenylacetamide], the IC50 (in test [1]; in the test with HT-29 cells) was less than 100 nM each time.

Turning to `Cc1ccc2cc1CNC(=O)[C@H](CCc1ccccc1)NC(=O)[C@@H](NC(=O)c1nc3ccccc3[nH]1)CC(=O)N1CCCC(CCO2)C1` (stereo partly drawn) [Compound 31, N-((9S,12S)-5^4-methyl-8,11,14-trioxo-9-phenethyl-4-oxa-7,10-diaza-1(3,1)-piperidina-5(1,3)-benzenacyclotetradecaphane-12-yl)-1H-benzo[d] imidazole-2-carboxamide], the IC50 (in test [1]; with HT-29 cells) was less than 100 nM throughout. `CC(=O)N[C@H]1CC(=O)N2CCCC(CCOc3ccc(C)c(c3)CNC(=O)C(c3cnn(C)c3)NC1=O)C2` (stereo partly drawn) [Compound 552, N-((12S)-5^4-methyl-9-(1-methyl-1H-pyrazol-4-yl)-8,11,14-trioxo-4-oxa-7,10-diaza-1(3,1)-piperidina-5(1,3)-benzenacyclotetradecaphane-12-yl)acetamide]: the IC50 (in test [1]; with HT-29 cells) was less than 100 nM throughout. On to `CC(=O)N[C@H]1CC(=O)N2CCCC(CCOc3ccc(C)c(c3)CNC(=O)C(CCc3nccs3)NC1=O)C2` (stereo partly drawn) [Compound 563, N-((12S)-5^4-methyl-8,11,14-trioxo-9-(2-(thiazol-2-yl)ethyl)-4-oxa-7,10-diaza-1(3,1)-piperidina-5(1,3)-benzenacyclotetradecaphane-12-yl)acetamide], for which the IC50 (in test [1]; with HT-29 cells) was less than 100 nM in each case. For `Cc1ccc2cc1CNC(=O)C(c1cnn(C)c1)NC(=O)[C@@H](NC(=O)C1CCCc3ccccc31)CC(=O)N1CCCC(CCO2)C1` (stereo partly drawn) [Compound 360, N-((12S)-5^4-methyl-9-(1-methyl-1H-pyrazol-4-yl)-8,11,14-trioxo-4-oxa-7,10-diaza-1(3,1)-piperidina-5(1,3)-benzenacyclotetradecaphane-12-yl)-1,2,3,4-tetrahydronaphthalene-1-carboxamide], the IC50 (in test [1]; in the test on HT-29 cells) was less than 100 nM throughout. On to `CC(=O)N[C@H]1CCC(=O)N2CC3CC(Oc4ccc(C)c(c4)CNC(=O)[C@H](CCc4ccccc4)NC1=O)C3C2` (stereo partly shown) [Compound 299, N-(3^4-methyl-6,9,13-trioxo-7-phenethyl-2-oxa-13,5,8-triaza-1(6,3)-bicyclo[3.2.0]heptana-3(1,3)-benzenacyclotridecaphane-10-yl)acetamide], for which the IC50 in test [1] is 500 to 1000 nM; in the test on HT-29 cells, 100 to 500 nM. With `Cc1ccc2cc1CNC(=O)[C@H](CCc1ccccc1)NC(=O)[C@@H](NC(=O)Cc1nnc(N)s1)CC(=O)N1CCCC(CCO2)C1` (stereo partly drawn) [Compound 310, 2-(5-amino-1,3,4-thiadiazol-2-yl)-N-((9S,12S)-54-methyl-8,11,14-trioxo-9-phenethyl-4-oxa-7,10-diaza-1(3,1)-piperidina-5(1,3)-benzenacyclotetradecaphane-12-yl)acetamide], the IC50 (in test [1]; in the test on HT-29 cells) was less than 100 nM each time. With `Cc1ccc2cc1CNC(=O)[C@H](CCc1ccccc1)NC(=O)[C@@H](NC(=O)OCc1ccccc1)CC(=O)N1CCCC3(CC(C3)O2)C1` [Compound 300], the IC50 in test [1] was less than 100 nM; in the test with HT-29 cells, 100 to 500 nM. For `Cc1ccc2cc1CNC(=O)[C@H](CCc1ccccc1)NC(=O)[C@@H](NC(=O)OCc1ccccc1)CCCCC(=O)NCCCCO2` [Compound 347, benzyl ((13S,16S)-1^4-methyl-8,14,17-trioxo-16-phenethyl-2-oxa-7,15,18-triaza-1(1,3)-benzenacyclononadecaphane-13-yl)carbamate], the IC50 (in test [1]; in the test on HT-29 cells) was less than 100 nM throughout. Regarding `Cc1ccc2cc1CNC(=O)[C@H](CCc1ccccc1)NC(=O)[C@@H](NC(=O)OCc1ccccc1)CCCC(=O)NCCCCO2` [Compound 322, benzyl ((12S,15S)-1^4-methyl-8,13, 16-trioxo-15-phenethyl-2-oxa-7,14,17-triaza-1(1,3)-benzenacyclooctadecaphane-12-yl)carbamate], the IC50 is less than 100 nM in test [1] and 100 to 500 nM in the test on HT-29 cells. Turning to `Cc1ccc2cc1CNC(=O)C(CCc1cnc3nccnc3c1)NC(=O)[C@@H](NC(=O)OCc1ccccc1)CC(=O)N1CCCC(CCO2)C1` (stereo partly drawn) [Compound 505, benzyl ((12S)-5^4-methyl-8,11,14-trioxo-9-(2-(pyrido[2,3-b]pyrazin-7-yl)ethyl)-4-oxa-7,10-diaza-1(3,1)-piperidina-5(1,3)-benzenacyclotetradecaphane-12-yl)carbamate], the IC50 (in test [1]; in the test with HT-29 cells) was less than 100 nM in each case. As for `Cc1ccc2cc1CNC(=O)[C@H](CCc1ccccc1)NC(=O)[C@@H](NC(=O)Cc1ccccc1C)CC(=O)N1CCCC(CCO2)C1` (stereo partly drawn) [Compound 373, N-((9S,12S)-5^4-methyl-8,11,14-trioxo-9-phenethyl-4-oxa-7,10-diaza-1(3,1)-piperidina-5(1,3)-benzenacyclotetradecaphane-12-yl)-2-(o-tolyl)acetamide], the IC50 in test [1] was less than 100 nM.
